# Source: patent US20070078161A1, “Crystalline forms of (+)- and (-) erythro-mefloquine hydrochloride” (priority 2003, published 2007)
# Legend:
# [1] = solubility behaviour in ethanol/water mixtures; assay type: physicochemical
# Excerpt: This effect may be used to initiate precipitation and crystallisation by the addition of water to a solution of (+)- or (−)-mefloquine hydrochloride and also to apply seeding techniques using seeds with a desired morphology such as crystalline form A in cubic or cube-like form. However, other non-solvents may be used to initiate precipitation from solution in a solvent such as hydrocarbons (hexane, heptane, cyclohexane and methylcyclohexane) or ethers (t-butyl methyl ether).
# [2] = grinding of form A sample, X-ray powder diffraction; assay type: physicochemical; details: slightly ground to particle size approximately 1 to 10 μm
# Method: This sample was slightly ground to reduce the particle size to approximately 1 to 10 μm and to avoid this textural effect. The strongest peak intensities are thus reduced and a few of the small peaks disappear.
# Powder X-ray Diffraction (PXRD): PXRD is performed on a Philips 1710 powder X-ray diffractometer using CuKα radiation. D-spacings are calculated from the 2θ values using the wavelength of 1.54060 Å. Generally, 2θ values are within an error of ±0.1-0.2°. The experimental error on the d-spacing values is therefore dependent on the peak location.
# [3] = suspensions of mixtures of forms A, B and C, 2° C. to 75° C.
smiles,measurement,setting,value
Cl.OC(c1cc(C(F)(F)F)nc2c(C(F)(F)F)cccc12)C1CCCCN1 (stereo not drawn) [(+)- or (−)-mefloquine hydrochloride],solubility on addition of certain amounts of water to pure ethanol,[1]; lower water amounts,increased
same,solubility relative to pure ethanol,[1]; water content of above 50% (v/v),lower than in pure ethanol
Cl.OC(c1cc(C(F)(F)F)nc2c(C(F)(F)F)cccc12)C1CCCCN1 (stereo not shown) [form A],crystal form after grinding,[2],still present after grinding
Cl.OC(c1cc(C(F)(F)F)nc2c(C(F)(F)F)cccc12)C1CCCCN1 (stereo not shown) [form B],relative stability of crystalline forms,[3],metastable
